The subject of the first test is cultured human mast cells (CHMC). Briefly: CHMC low cell density IgE activation: tryptase assay. The format is cell-based. Particulars: low cell density; read-out: CHMC anti-IgE Tryptase. The gist of the method: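 Read-out: tryptase released into supernatant, measured by substrate turnover over 30 min at RT. Low-density CHMC (1000-1500 cells/well, per donor degranulation activity) in MT buffer, 1 hr at 37° C, then anti-IgE challenge 30 min at 37° C.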
As for `Cc1cccc(C)c1Nc1ncc(F)c(Nc2ccc3c(c2)NC(=O)C(C)(C)O3)n1` [Compound R927069], the IC50 came out at 76 nM.

In the case of `COc1ccc(Nc2ncc(F)c(Nc3ccc4c(c3)NC(=O)[C@@H](C)O4)n2)cc1Cl` [Compound R909322], the IC50 was 225 nM.

A further test shares this test system. Briefly: CHMC low cell density ionomycin activation: tryptase assay. It counts as cell-based. The conditions noted are these: low cell density; read-out: CHMC Ionomycin Tryptase.
Regarding `Cc1cccc(C)c1Nc1ncc(F)c(Nc2ccc3c(c2)NC(=O)C(C)(C)O3)n1` [Compound R927069], the IC50 was 13000 nM.

As for `COc1ccc(Nc2ncc(F)c(Nc3ccc4c(c3)NC(=O)[C@@H](C)O4)n2)cc1Cl` [Compound R909322], the IC50 was above 10000 nM.

A further test deals with bone marrow derived mast cells (BMMC). Nature of the test: BMMC high cell density IgE activation: hexosaminidase. Particulars: high cell density; read-out: BMMC anti-IgE Hexos. The format is cell-based, mouse.
For `Cc1cccc(C)c1Nc1ncc(F)c(Nc2ccc3c(c2)NC(=O)C(C)(C)O3)n1` [Compound R927069], the IC50 came out at 1350 nM.

As to `COc1ccc(Nc2ncc(F)c(Nc3ccc4c(c3)NC(=O)[C@@H](C)O4)n2)cc1Cl` [Compound R909322], the IC50 worked out at 240 nM.

The test system is the same in a further test. Briefly: BMMC high cell density IgE activation: TNFalpha. It counts as cell-based, mouse. The conditions noted are these: high cell density; read-out: BMMC anti-IgE TNF-alpha. The protocol: (§1) After sensitizing, cells are counted, pelleted (1000 rpm, 5-10 minutes), and resuspended at 1-3×10^6 cells/ml in MT buffer. Add 100 ul of cell suspension to each well and 100 ul of compound dilutions. The final vehicle concentration is 0.5% DMSO. Incubate at 37° C. (5% CO2) for 1 hour. After 1 hour of compound treatment, stimulate cells with 6× stimulus (60 ng/ml DNP-BSA). Mix wells with the cells and allow plates to incubate at 37° C. (5% CO2) for one hour. After 1 hour incubation, pellet cells (10 minutes, 1000 RPM) and collect 200 ul per well of the supernatant, being careful not to disturb pellet, and transfer to a clean tube or 96-well plate. Place the supernatant plate on ice. During the 4-5 hour step (see next) perform the hexosiminidase assay. Resuspend cell pellet in 240 ul WEI-conditioned media containing 0.5% DMSO and corresponding concentration of compound. Incubate BMMC cells for 4-5 hours at 37° C. (5% CO2). After incubation, pellet cells (1000 RPM, 10 minutes) and collect 225 ul per well and place in −80° C. until ready to perform ELISAS. ELISAS are performed on appropriately diluted samples (determined empirically for each donor cell population so that the sample measurement falls within the standard curve) following the supplier's instructions.
As for `Cc1cccc(C)c1Nc1ncc(F)c(Nc2ccc3c(c2)NC(=O)C(C)(C)O3)n1` [Compound R927069], the IC50 came out at 930 nM.

With `COc1ccc(Nc2ncc(F)c(Nc3ccc4c(c3)NC(=O)[C@@H](C)O4)n2)cc1Cl` [Compound R909322], the IC50 was found to be 140 nM.

For the next test the test system is unchanged. Nature of the test: BMMC high cell density IgE activation: IL-6. The format is cell-based, mouse. The conditions noted are these: high cell density; read-out: BMMC anti-IgE IL-6. The protocol: as §1
For the compound `Cc1cccc(C)c1Nc1ncc(F)c(Nc2ccc3c(c2)NC(=O)C(C)(C)O3)n1` [Compound R927069], the IC50 is 1090 nM.

As to `COc1ccc(Nc2ncc(F)c(Nc3ccc4c(c3)NC(=O)[C@@H](C)O4)n2)cc1Cl` [Compound R909322], the IC50 came out at 100 nM.

A further test addresses T1, Syk kinase (Homo sapiens, UniProt P43405).
T1 construct: purchased Upstate, Lake Placid NY
Briefly: Syk kinase biochemical fluorescence polarization assay. Particulars: isolated Syk kinase, fluorescence polarization, 4 uM ATP.
`Cc1cccc(C)c1Nc1ncc(F)c(Nc2ccc3c(c2)NC(=O)C(C)(C)O3)n1` [Compound R927069]: the IC50 is 111 nM.

Regarding `COc1ccc(Nc2ncc(F)c(Nc3ccc4c(c3)NC(=O)[C@@H](C)O4)n2)cc1Cl` [Compound R909322], the IC50 came out at 141 nM.

In the next test the test system is Human Jurkat T-cells (clone N). Nature of the test: Jurkat T-cell activation (anti-TCR, CD69 upregulation). The format is cell-based.
Details: not given
An outline of the steps: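 Readout is CD69 upregulation by flow cytometry (anti-CD69-APC, 20 min at 4 °C) after 20 h anti-TCR (C305, 500 ng/ml) stimulation at 37 °C.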
Regarding `Cc1cccc(C)c1Nc1ncc(F)c(Nc2ccc3c(c2)NC(=O)C(C)(C)O3)n1` [Compound R927069], the IC50 stood at 930 nM.

In turn, `COc1ccc(Nc2ncc(F)c(Nc3ccc4c(c3)NC(=O)[C@@H](C)O4)n2)cc1Cl` [Compound R909322] had an IC50 of 3030 nM.

In the next test the test system is differentiated human macrophages. Briefly: Macrophage activation, IgG stimulation: TNF. It counts as cell-based. Particulars: stimulus (IgG or LPS) not given; read-out: Monocytes/Macrophage TNF IC50. As to the method:
Purity was assessed by measuring the percentage of CD14+ cells by flow cytometry.
A negative control consisting of the F(ab′)2 fragment was also coated to assess background stimulation. Unbound antibody was washed away 2× with 200 ul PBS. […] The cells were incubated for 16 hr in a 37° C. incubator, and supernatants were collected for Luminex analysis for IL-6 and TNFα, essentially as described for the primary T-cells, above.
As to `Cc1cccc(C)c1Nc1ncc(F)c(Nc2ccc3c(c2)NC(=O)C(C)(C)O3)n1` [Compound R927069], the IC50 was 8500 nM.

Consider `COc1ccc(Nc2ncc(F)c(Nc3ccc4c(c3)NC(=O)[C@@H](C)O4)n2)cc1Cl` [Compound R909322], for which the IC50 worked out at 1260 nM.

A further test has the same test system. Nature of the test: Macrophage activation, IgG stimulation: IL-6. It counts as cell-based. Particulars: stimulus (IgG or LPS) not given; read-out: Monocytes/Macrophage IL-6 IC50. As to the method: CD 14+ monocytes were purified from PBMC (Allcells # PB002) using the Monocyte Isolation kit (Miltenyi biotec #130-045-501) as per the manufacturer's instructions. Purity was assessed by measuring the percentage of CD14+ cells by flow cytometry. Typically >90% purity is achieved. The purified CD14+ cells are then plated out (6×10^6 cells/150 cm TC dish in 15 mls media) in Macrophage-SFM (Gibco #12065-074) with 100 ng/ml of M-CSF (Pepro Tech #300-25) and allowed to differentiate for five days. At the end of that period, cell morphology and cell surface markers (CD14, HLA-DR, B7.1, B7.2, CD64, CD32, and CD16) reflected the presence of mature differentiated macrophage.
A negative control consisting of the F(ab′)2 fragment was also coated to assess background stimulation. Unbound antibody was washed away 2× with 200 ul PBS. 20 ul of 5× compound was added to each well, followed by the addition 15 k cells of differentiated macrophage in 80 uL that had been scraped off of the plates. The cells were incubated for 16 hr in a 37° C. incubator, and supernatants were collected for Luminex analysis for IL-6 and TNFα, essentially as described for the primary T-cells, above.
Varied concentrations of compound were compared to solvent only to determine the IC50 of each compound for each cytokine Representative IC50 s for 2,4-pyrimidinediamine compounds of the invention are shown in Table 11.
Take `Cc1cccc(C)c1Nc1ncc(F)c(Nc2ccc3c(c2)NC(=O)C(C)(C)O3)n1` [Compound R927069]: the IC50 stood at 5650 nM.

For the compound `COc1ccc(Nc2ncc(F)c(Nc3ccc4c(c3)NC(=O)[C@@H](C)O4)n2)cc1Cl` [Compound R909322], the IC50 turned out to be 839 nM.

The record behind these values is patent US8158621B2, “Methods of treating or preventing autoimmune diseases with 2,4-pyrimidinediamine compounds” (Rigel Pharmaceuticals, Inc., priority 2002, dated 2012).
